Measurements: patent US4007267A, “Antibiotic B-98891” (priority 1974, dated 1977)
≈ marks a conversion by molar mass, not a printed value. Entries after “also recorded” stand apart in the source; their conditions may differ. Like-named read-outs stand apart in the source and are kept apart here.

Experiments:
[1] = tested on: Pyricularia oryzae IFO-5279; type: cell-based; settings: medium A, 28 °C, time 40
[2] = tested on: Cochliobolus miyabeanus IFO-5277; assay: Antimicrobial spectrum (in vitro), agar dilution and diffusion methods; type: cell-based; settings: medium A, 28 °C, time 40
[3] = tested on: Sclerotinia sclerotiorum IFO-9395; assay: as above; type: cell-based; settings: medium A, 28 °C, time 40
Botrytis cinerea TKF-12 = assay: as above; type: cell-based; settings: medium A, 20 °C, time 88
Procedure: (§1) The antimicrobial spectrum of the antibiotic B-98891 as measured by the agar dilution and diffusion methods is shown in Table 3. The "diameter of inhibition zone" in the table represents the diameter of the inhibition zone formed around a paper disc(7 mm. in diameter) immersed in a 5000 μg/ml. solution of the present antibiotic.
(§2) A 3.0 % sucrose, 0.2 % L-asparagine, 0.3 % NH4 NO3, 0.1 % KH2 PO4, 0.1 % MgSO4.7H2 O, 0.001 % versenol (manufactured by Dow Chemical Co.; an iron chelate compound; content of iron-sodium ethanol ethylene diamine triacetate is 57.04 %), 1.5 % agar (pH 7) Before use, the following vitamins are added to the medium to the indicated final concentrations. 1 μg/ml. thiamine, 1 μg/ml. riboflavin, 1 μg/ml. calcium pantothenate, 1 μg/ml. niacin, 0.005 μg/ml. biotin, 0.5 μg/ml. folic acid, 2 μg/ml. pyridoxine hydrochloride, 0.5 μg/ml. p-aminobenzoic acid, 0.0002 μg/ml. cyanocobalamin

[4] = tested on: Guignardia laricina IFO-7888; assay: as above; type: cell-based; settings: medium A, 28 °C, time 88
Procedure: as §1, §2

[5] = tested on: Trichophyton mentagrophytes IFO-5809; assay: as above; type: cell-based; settings: medium D, 28 °C, time 88
Procedure: as §1

[6] = tested on: Candida albicans IFO-0583; assay: as above; type: cell-based; settings: medium A, 28 °C, time 40
[7] = tested on: Saccharomyces cerevisiae IFO-0209; assay: as above; type: cell-based; settings: medium A, 28 °C, time 40
[8] = tested on: Rhodotorula rubra IFO-0870; assay: as above; type: cell-based; settings: medium A, 28 °C, time 40
[9] = tested on: Bacillus subtilis IFO-3513; assay: as above; type: cell-based; settings: medium B, 37 °C, time 20
Procedure: as §1
(§3) B 0.5 % ehrlich's meat extract, 0.5 % polypeptone, 0.5 % NaCl, 1.5 % agar (pH 7)

[10] = tested on: Escherichia coli IFO-3044; assay: as above; type: cell-based; settings: medium B, 37 °C, time 20
Procedure: as §1, §3

[11] = tested on: Proteus vulgaris IFO-3045; assay: as above; type: cell-based; settings: medium B, 37 °C, time 20
Procedure: as §1, §3

[12] = tested on: Pseudomonas aeruginosa IFO-3080; assay: as above; type: cell-based; settings: medium B, 37 °C, time 20
Procedure: as §1, §3

[13] = tested on: Staphylococcus aureus IFO-3061; assay: as above; type: cell-based; settings: medium B, 37 °C, time 20
Procedure: as §1, §3

[14] = tested on: Mycobacterium phlei IFO-3158; assay: as above; type: cell-based; settings: medium C, 37 °C, time 40
Procedure: as §1
(§4) C 3.0 % glycerin, 0.5 % Ehrlich's meat extract, 0.5 % polypeptone, 0.5 % NaCl, 1.5 % agar (pH 7.0)

[15] = tested on: Mycobacterium smegmatis ATCC-607; assay: as above; type: cell-based; settings: medium C, 37 °C, time 40
Procedure: as §1, §4

Japanese killifish = assay: Fish toxicity test; type: in vivo; settings: 20 ppm, 7 days observation
[16] = tested on: Phytophthora infestans (Montagne) de Bary; type: in vivo
powdery mildew of barley = assay: Control test of powdery mildew of barley (pots); type: in vivo, Erysiphe graminis
powdery mildew of rose = assay: Control test of the powdery mildew of rose (Arlene Francis); type: in vivo
Procedure: For this test, rose (Rosa spp.) plants were grown in pots at a green-house.As test plants (forma species: Super Star and Arlene Francis) were used in groups of 3 pots per treatment. […] The number of diseased leaflets on three branches per pot was investigated 7 days after the third application and the percentage of diseased leaflets relative to the total number of leaflets investigated was calculated.

[17] = tested on: powdery mildew of apple plant; assay: Control test of powdery mildew of apple plant; type: in vivo; settings: 12 days
Procedure: (§5) The control chemical was also similarly diluted with water.
The seedlings of the apple (Malus pumila Miller var. domestica Schneider f. Rall's Janet) in their 5- to 8-leaf stage were employed. The pathogenic fungi on diseased leaves of an apple plant were dusted over the tops of the seedlings which, then, were kept in a green-house. […] After the application, the seedlings were further grown in a green-house. After 12 days, the percent area of the lesion was investigated. The test was conducted in hexaplicate for each group.

[18] = tested on: certain gram-positive bacteria, gram-negative bacteria, phytopathogenic fungi and certain yeasts; assay: Antimicrobial spectrum, summary; type: cell-based; settings: in vitro
Procedure: as §1

powdery mildew of pepper = assay: Control test of powdery mildew of pepper
Procedure: as §5
The reverse sides of unfolded leaves of pot-grown pepper plants (9 to 10-leaf stage, Capsicum annuum L. f. California Wonder) were inoculated, by dusting, with the pathogenic fungi from infected leaves. Two days later, the leaves were sprayed with adequate volume of test solutions as in Test Example 1. Then, the plants were grown and cared in a green-house and, after timed intervals, the percent area of fungal growth was determined. This test was performed in duplicate for each group.

[19] = tested on: powdery mildew of oak tree; assay: Control test of powdery mildew of oak tree
Procedure: as §5
This test was conducted with shoots of naturally grown oak (Quercus glauca Thunb.) trees about 10 years old. The fungicidal solutions prepared in the same manner as Test Example 1 were applied in mists.
The old mature leaves had already been severely diseased and, therefore, spontaneous infection of young leaves on the shoots was expected.
The number of treated leaves was 50 per group. The percent area of the lesion on treated leaves was investigated at 7 days after the treatment.

[20] = tested on: Sphaerotheca fuliginea Pollacci; assay: Control effect against drug-resistant powdery mildew on cucumber; settings: 40 ppm, 7 days
Text: as §5
The leaves of a cucumber plant (Cucumis sativus L. f. Suyo) infected with powdery mildew were flipped over a 1-month cucumber plant in a pot so that the latter was inoculated with Sphaerotheca fuliginea Pollacci. After 1 day, the fungicidal solutions prepared in the same manner as Test Example 1 were sprayed in sufficient volume over the plant. After about 14 days, the fungal growth formed were used to further inoculate intact cucumber plants. One day after the inoculation, fungicidal solution was sprayed and, after 7 days, the percent area of the lesion was determined.

NC(N)=NCC(O)CC(O)(C(=O)O)[C@H]1O[C@@H](n2cc(CO)c(N)nc2=O)C=C[C@@H]1NC(=O)[C@@H](N)CO (some centres unmarked) [B-98891]
Minimal inhibitory concentration [1]: > 500 µg/mL | Minimal inhibitory concentration [2]: > 500 µg/mL | Diameter of inhibition zone ([2]; paper disc 7 mm, 5000 μg/ml): 15 mm | Minimal inhibitory concentration [3]: 500 µg/mL (≈ 972 µM) | Diameter of inhibition zone ([3]; paper disc 7 mm, 5000 μg/ml): 20 mm | Minimal inhibitory concentration (Botrytis cinerea TKF-12): 250 µg/mL (≈ 486 µM) | Diameter of inhibition zone (Botrytis cinerea TKF-12; paper disc 7 mm, 5000 μg/ml): 15 mm | Minimal inhibitory concentration [4]: 100 µg/mL (≈ 194 µM) | Diameter of inhibition zone ([4]; paper disc 7 mm, 5000 μg/ml): 18 mm | Minimal inhibitory concentration [5]: 500 µg/mL (≈ 972 µM) | Minimal inhibitory concentration [6]: > 500 µg/mL | Minimal inhibitory concentration [7]: > 500 µg/mL | Diameter of inhibition zone ([7]; paper disc 7 mm, 5000 μg/ml): 12 mm | Minimal inhibitory concentration [8]: 50 µg/mL (≈ 97.2 µM) | Diameter of inhibition zone ([8]; paper disc 7 mm, 5000 μg/ml): 80 mm | Minimal inhibitory concentration [9]: > 500 µg/mL | Diameter of inhibition zone ([9]; paper disc 7 mm, 5000 μg/ml): 14 mm | Minimal inhibitory concentration [10]: 500 µg/mL (≈ 972 µM) | Diameter of inhibition zone ([10]; paper disc 7 mm, 5000 μg/ml): 14 mm | Minimal inhibitory concentration [11]: > 500 µg/mL | Diameter of inhibition zone ([11]; paper disc 7 mm, 5000 μg/ml): 11 mm | Minimal inhibitory concentration [12]: > 500 µg/mL | Minimal inhibitory concentration [13]: > 500 µg/mL | Diameter of inhibition zone ([13]; paper disc 7 mm, 5000 μg/ml): 10 mm | Minimal inhibitory concentration [14]: 50 µg/mL (≈ 97.2 µM) | Diameter of inhibition zone ([14]; paper disc 7 mm, 5000 μg/ml): 27 mm | Minimal inhibitory concentration [15]: 250 µg/mL (≈ 486 µM) | Diameter of inhibition zone ([15]; paper disc 7 mm, 5000 μg/ml): 24 mm | fish toxicity (Japanese killifish): no toxic effect; also recorded: substantially harmless to fish | Degree of sporulation ([16]; 250 ppm): Moderate | Percent area of lesions ([16]; 250 ppm): 100% | Degree of sporulation ([16]; 500 ppm): None | Percent area of lesions ([16]; 500 ppm): 0% | Percent area of lesions (powdery mildew of barley; 15.6 ppm, 6th leaf, A: 10 days after first application): 0.4% | Percent area of lesions (powdery mildew of barley; 15.6 ppm, 6th leaf, B: 10 days after second application): 2.1% | Percent area of lesions (powdery mildew of barley; 15.6 ppm, 6th leaf, C: 10 days after third application): 0.8% | Percent area of lesions (powdery mildew of barley; 15.6 ppm, 9th leaf, B: 10 days after second application): 2.3% | Percent area of lesions (powdery mildew of barley; 15.6 ppm, 9th leaf, C: 10 days after third application): 10.5% | Percent area of lesions (powdery mildew of barley; 31.2 ppm, 6th leaf, A: 10 days after first application): 0.3% | Percent area of lesions (powdery mildew of barley; 31.2 ppm, 6th leaf, B: 10 days after second application): 2.0% | Percent area of lesions (powdery mildew of barley; 31.2 ppm, 6th leaf, C: 10 days after third application): 1.3% | Percent area of lesions (powdery mildew of barley; 31.2 ppm, 9th leaf, B: 10 days after second application): 0.3% | Percent area of lesions (powdery mildew of barley; 31.2 ppm, 9th leaf, C: 10 days after third application): 1.3% | Percent area of lesions (powdery mildew of barley; 62.5 ppm, 6th leaf, A: 10 days after first application): 0.1% | Percent area of lesions (powdery mildew of barley; 62.5 ppm, 6th leaf, B: 10 days after second application): 0.1% | Percent area of lesions (powdery mildew of barley; 62.5 ppm, 6th leaf, C: 10 days after third application): 0% | Percent area of lesions (powdery mildew of barley; 62.5 ppm, 9th leaf, B: 10 days after second application): 0.5% | Percent area of lesions (powdery mildew of barley; 62.5 ppm, 9th leaf, C: 10 days after third application): 0.4% | Percent of diseased leaflet (powdery mildew of rose; 40 ppm): 14.9% | Percent of diseased leaflet (powdery mildew of rose; 80 ppm): 6.7% | Percent of diseased leaflet (powdery mildew of rose; 160 ppm): 2.2% | Percent area of the lesion ([17]; 40 ppm): 0.9% | Percent area of the lesion ([17]; 80 ppm): 0.6% | Percent area of the lesion ([17]; 160 ppm): 0% | antimicrobial activity [18]: weakly active | Percent area of the lesion (powdery mildew of pepper; 80 ppm, 7 days): 7.9% | Percent area of the lesion (powdery mildew of pepper; 80 ppm, 10 days): 10.3% | Percent area of the lesion (powdery mildew of pepper; 160 ppm, 7 days): 5.0% | Percent area of the lesion (powdery mildew of pepper; 160 ppm, 10 days): 4.6% | Percent area of lesion ([19]; 40 ppm, 7 days): 8.3% | Percent area of lesion ([19]; 40 ppm, 14 days): 26.4% | Percent area of lesion ([19]; 80 ppm, 7 days): 1.1% | Percent area of lesion ([19]; 80 ppm, 14 days): 1.5% | Percent area of lesion ([19]; 160 ppm, 7 days): 0.6% | Percent area of lesion ([19]; 160 ppm, 14 days): 0.5% | Percent area of lesion ([20]; inoculum: control (untreated)): 15.8% | Percent area of lesion ([20]; inoculum: lesions after application of B-98891 (80ppm)): 18.3% | Percent area of lesion ([20]; inoculum: lesions after application of Benlate WP (250 ppm)): 21.7%
